Calls of active or inactive are those of the source. The calls are words filed in the database; no cut-off is given here.
Experiments:
A549 [1] = test: Induction of cell cycle arrest in human A549 cells assessed as accumulation at G2/M phase at 10 uM incubated for 48 hrs by PI staining based flow cytometry analysis; type: functional
A549 [2] = test: Cytotoxicity against human A549 cells assessed as cell growth inhibition incubated for 48 hrs by MTT assay; type: functional, cell-based; conditions: A549, 48 h
A549 [3] = test: Cytotoxicity against human A549 cells assessed as cell growth inhibition at 10 uM incubated for 48 hrs by MTT assay relative to control; type: functional

Compound	Activity (A549 [1])	IC50 (A549 [2]) [µM]	inhibition at 10 µM (A549 [3]) [%]
CC(C)(C)OC(=O)c1cccc2c3cc(Cl)ccc3n(-c3ncccn3)c12	Active		
O=C(c1ccc(O)c(O)c1)c1cccc2c3ccccc3n(-c3ncccn3)c12		8.86	50
Cc1c2ccncc2c(C)c2c1[nH]c1ccccc12 [ELLIPTECINE]		3.45	
O=C(c1ccco1)c1cccc2c3ccccc3n(-c3ncccn3)c12	Active	14.9	50
O=C(c1cccc(Cl)c1)c1cccc2c3ccccc3n(-c3ncccn3)c12	Active	7.19	50
O=C(c1ccccc1Cl)c1cccc2c3ccccc3n(-c3ncccn3)c12	Active	6.84	50

— ChEMBL document CHEMBL5154761, “Design, synthesis, and evaluation of 9-(pyrimidin-2-yl)-9H-carbazole derivatives disrupting mitochondrial homeostasis in human lung adenocarcinoma” (Eur J Med Chem, 2022)
